Assay results published in ChEMBL document CHEMBL4261497, “Nucleotide pyrophosphatase/phosphodiesterase 1 (NPP1) and its inhibitors” (Medchemcomm, 2017).
Each block holds one molecule with its values, some of them ahead of it.

Columns and labels:
[1] = molecular target: T1, Ectonucleotide pyrophosphatase/phosphodiesterase family member 1 (Homo sapiens, UniProt P22413); assay: Competitive-inhibition of recombinant human NPP1 expressed in HEK293 cell membranes using p-Nph-5'-TMP as substrate pretreated for 10 mins followed by substrate addition and measured after 60 mins by capillary electrophoresis method
T1 sequence (P22413 whole entry): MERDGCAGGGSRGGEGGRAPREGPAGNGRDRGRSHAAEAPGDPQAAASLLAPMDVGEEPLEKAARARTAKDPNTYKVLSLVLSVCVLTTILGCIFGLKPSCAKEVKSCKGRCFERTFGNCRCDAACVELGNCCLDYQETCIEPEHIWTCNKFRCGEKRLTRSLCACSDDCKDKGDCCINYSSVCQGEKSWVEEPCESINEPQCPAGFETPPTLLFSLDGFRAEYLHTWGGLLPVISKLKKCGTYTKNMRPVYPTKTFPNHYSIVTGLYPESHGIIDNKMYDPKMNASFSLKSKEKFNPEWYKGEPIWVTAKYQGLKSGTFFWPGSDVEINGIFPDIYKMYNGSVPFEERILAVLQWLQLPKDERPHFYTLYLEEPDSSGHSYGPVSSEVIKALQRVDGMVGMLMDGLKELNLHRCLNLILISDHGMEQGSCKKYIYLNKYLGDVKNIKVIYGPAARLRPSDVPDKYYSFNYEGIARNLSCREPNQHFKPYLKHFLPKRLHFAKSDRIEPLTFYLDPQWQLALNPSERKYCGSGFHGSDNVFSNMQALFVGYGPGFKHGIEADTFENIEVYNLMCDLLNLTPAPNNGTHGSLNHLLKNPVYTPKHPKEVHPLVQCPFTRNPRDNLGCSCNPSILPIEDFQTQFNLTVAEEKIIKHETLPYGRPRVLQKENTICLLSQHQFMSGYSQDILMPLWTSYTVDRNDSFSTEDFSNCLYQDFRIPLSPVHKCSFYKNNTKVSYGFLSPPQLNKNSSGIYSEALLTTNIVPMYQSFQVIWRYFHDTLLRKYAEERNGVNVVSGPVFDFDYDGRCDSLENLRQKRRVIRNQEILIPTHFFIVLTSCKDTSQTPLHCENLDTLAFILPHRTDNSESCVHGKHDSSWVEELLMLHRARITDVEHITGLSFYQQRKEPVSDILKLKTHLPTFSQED

[2] = molecular target: T2, Ectonucleotide pyrophosphatase/phosphodiesterase family member 1 (Rattus norvegicus, UniProt Q924C3); assay: Competitive-inhibition of Wistar rat NPP1 using p-Nph-5'-TMP as substrate measured after 5 mins by UPLC method
T2 sequence (Q924C3 whole entry): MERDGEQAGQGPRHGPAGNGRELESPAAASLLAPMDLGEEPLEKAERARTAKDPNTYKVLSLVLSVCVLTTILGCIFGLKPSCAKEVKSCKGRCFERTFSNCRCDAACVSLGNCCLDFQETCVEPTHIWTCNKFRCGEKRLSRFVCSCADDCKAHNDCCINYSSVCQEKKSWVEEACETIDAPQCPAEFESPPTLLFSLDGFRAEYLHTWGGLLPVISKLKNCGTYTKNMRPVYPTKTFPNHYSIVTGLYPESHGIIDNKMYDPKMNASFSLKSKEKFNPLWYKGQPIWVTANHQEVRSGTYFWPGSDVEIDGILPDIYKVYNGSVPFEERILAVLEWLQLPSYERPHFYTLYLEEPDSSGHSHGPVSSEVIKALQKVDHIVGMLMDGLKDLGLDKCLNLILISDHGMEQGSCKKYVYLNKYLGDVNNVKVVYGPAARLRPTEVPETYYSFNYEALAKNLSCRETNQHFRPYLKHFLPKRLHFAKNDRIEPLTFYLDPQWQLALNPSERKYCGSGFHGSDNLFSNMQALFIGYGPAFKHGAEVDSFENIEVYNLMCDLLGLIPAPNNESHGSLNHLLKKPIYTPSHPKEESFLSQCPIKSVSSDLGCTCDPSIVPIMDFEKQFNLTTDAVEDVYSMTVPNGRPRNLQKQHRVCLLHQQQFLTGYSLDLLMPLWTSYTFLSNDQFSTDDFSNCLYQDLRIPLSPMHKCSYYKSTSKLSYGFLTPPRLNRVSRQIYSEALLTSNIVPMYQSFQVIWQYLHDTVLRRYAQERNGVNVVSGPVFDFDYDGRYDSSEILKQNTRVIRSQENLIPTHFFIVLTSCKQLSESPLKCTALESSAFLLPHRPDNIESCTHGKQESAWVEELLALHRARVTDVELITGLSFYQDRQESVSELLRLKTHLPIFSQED

[3] = molecular target: T1, Ectonucleotide pyrophosphatase/phosphodiesterase family member 1; assay: Competitive-inhibition of recombinant human N-terminal His-tagged soluble NPP1 (Val191 to Leu591 residues) expressed in mouse NSO cells using ATP as substrate after 30 mins by capillary electrophoresis method
[4] = molecular target: T1, Ectonucleotide pyrophosphatase/phosphodiesterase family member 1; assay: Inhibition of recombinant human NPP1 expressed in COS7 cell membranes using p-Nph-5'-TMP as substrate pretreated for 10 mins followed by substrate addition and measured after 30 mins by spectrophotometric method
[5] = molecular target: T1, Ectonucleotide pyrophosphatase/phosphodiesterase family member 1; assay: Uncompetitive-inhibition of recombinant human N-terminal His-tagged soluble NPP1 (Val191 to Leu591 residues) expressed in mouse NSO cells using p-Nph-5'-TMP as substrate after 15 mins by capillary electrophoresis method
[6] = molecular target: T1, Ectonucleotide pyrophosphatase/phosphodiesterase family member 1; assay: Uncompetitive-inhibition of recombinant human N-terminal His-tagged soluble NPP1 (Val191 to Leu591 residues) expressed in mouse NSO cells using ATP as substrate by capillary electrophoresis method
[7] = molecular target: T1, Ectonucleotide pyrophosphatase/phosphodiesterase family member 1; assay: Uncompetitive-inhibition of recombinant human N-terminal His-tagged soluble NPP1 (Val191 to Leu591 residues) expressed in mouse NSO cells using ATP as substrate after 30 mins by capillary electrophoresis method
[8] = molecular target: T1, Ectonucleotide pyrophosphatase/phosphodiesterase family member 1; assay: Uncompetitive-inhibition of recombinant human N-terminal His-tagged soluble NPP1 (Val191 to Leu591 residues) expressed in mouse NSO cells using p-Nph-5'-AMP as substrate after 30 mins by capillary electrophoresis method
[9] = molecular target: T1, Ectonucleotide pyrophosphatase/phosphodiesterase family member 1; assay: Noncompetitive-inhibition of recombinant human NPP1 expressed in HEK293 cell membranes using p-Nph-5'-TMP as substrate pretreated for 10 mins followed by substrate addition and measured after 60 mins by capillary electrophoresis method
[10] = molecular target: T2, Ectonucleotide pyrophosphatase/phosphodiesterase family member 1; assay: Inhibition of NPP1 in Wistar rat C6 cells using [gamma-32P]ATP as substrate pretreated for 30 mins followed by substrate addition and measured after 90 mins by TLC analysis; type: cell-based
[11] = molecular target: T1, Ectonucleotide pyrophosphatase/phosphodiesterase family member 1; assay: Inhibition of recombinant human NPP1 expressed in COS7 cell membranes using p-Nph-5'-TMP as substrate pretreated for 10 mins followed by substrate addition and measured after 30 mins
[12] = molecular target: T2, Ectonucleotide pyrophosphatase/phosphodiesterase family member 1; assay: Mixed-inhibition of Wistar rat NPP1 using p-Nph-5'-TMP as substrate measured after 5 mins by UPLC method

Ki [1]: 2.96 µM
Ki [2]: 20.5 µM
Ki [3]: 14.6 µM
SMILES: Nc1ncnc2c1ncn2[C@@H]1O[C@H](COP(=O)(O)OP(=O)(O)OP(=O)(O)O)[C@@H](OC(=O)c2ccc(C(=O)c3ccccc3)cc2)[C@H]1O

IC50 [4]: 0.36 to 2.81 µM
SMILES: COc1cc2cc(-n3cc(C)c4ccccc43)n3c4ccccc4c(C)c3c2cc1OC

Ki [9]: 3.42 µM
SMILES: Nc1ncnc2c1ncn2[C@@H](C=O)O[C@@H](C=O)COP(=O)(O)OP(=O)(O)O

IC50 [10]: 12 µM
SMILES: Cc1nc(/N=N/c2ccc(S(=O)(=O)O)cc2S(=O)(=O)O)c(COP(=O)(O)O)c(C=O)c1O

IC50 [10]: 72 µM
SMILES: Cc1ccc(C(=O)Nc2ccc(S(=O)(=O)O)c3cc(S(=O)(=O)O)cc(S(=O)(=O)O)c23)cc1NC(=O)c1cccc(NC(=O)Nc2cccc(C(=O)Nc3cc(C(=O)Nc4ccc(S(=O)(=O)O)c5cc(S(=O)(=O)O)cc(S(=O)(=O)O)c45)ccc3C)c2)c1 [SURAMIN]

IC50 [11]: 1.9 to 5.5 µM
SMILES: CCC(Oc1ccc(C)cc1)c1nnc(SCC(=O)Nc2nc3ccccc3s2)o1 (centres undefined)

Second part, the molecule before the results:

SMILES: Nc1ncnc2c1ncn2[C@@H](C=O)O[C@@H](C=O)COP(=O)(O)OP(=O)(O)OP(=O)(O)O
Ki [5]: 4.09 µM
Ki [6]: 6.82 µM
Ki [7]: 6.96 µM
Ki [2]: 9.8 µM
Ki [8]: 5.08 µM

SMILES: CSc1nc(N)c2ncn([C@@H]3O[C@H](COP(=O)(O)OP(=O)(O)OP(=O)(O)O)[C@@H](O)[C@H]3O)c2n1
Ki [2]: 20.5 µM
Ki [3]: 21.3 µM

SMILES: Nc1ncnc2c1ncn2[C@@H]1O[C@H](COP(=O)(O)CP(=O)(O)OP(=O)(O)O)[C@@H](O)[C@H]1O [DIPHOSPHOMETHYLPHOSPHONIC ACID ADENOSYL ESTER]
Ki [2]: 2.2 µM

SMILES: CSc1nc(N)c2ncn([C@@H]3O[C@H](COP(=O)(O)OP(=O)(O)O)[C@@H](O)[C@H]3O)c2n1
Ki [3]: 23.7 µM

SMILES: Nc1ncnc2c1ncn2[C@@H]1O[C@H](COP(=O)(O)CP(=O)(O)O)[C@@H](O)[C@H]1O [PHOSPHOMETHYLPHOSPHONIC ACID ADENOSYL ESTER]
Ki [12]: 9.6 µM
Ki [3]: 24.3 µM
